In patent publication US11154569B2, “Ruthenium μ-nitrido complexes and their use as calcium uptake inhibitors” (CORNELL UNIVERSITY, priority 2018, dated 2021):

Experiments:
[1] = test system: mitochondria isolated from NRVMs; assay: Mitochondrial swelling assay (Ca2+-induced mPTP opening); assay type: cell-based, rat; details: 50 μM compound, Ca2+ 250 μM
Method: NRVMs were homogenized in ice-cold mitochondrial isolation buffer (10 mM sucrose, 200 mM mannitol, 5 mM HEPES, and 1 mM EGTA, pH 7.4) containing 1 mg/mL fatty acid-free bovine serum albumin. The homogenate was centrifuged for 10 minutes at 1000×g, and the supernatant was centrifuged again at 14,000×g for 10 minutes. The mitochondrial pellets were washed twice and centrifuged at 11,200×g. The isolated mitochondria (1 mg protein) were added to 0.2 mL of buffer mitochondrial swelling buffer (70 mM sucrose, 230 mM mannitol, 3 mM HEPES, 2 mM Trisphosphate, 5 mM succinate). Mitochondrial swelling was measured by decrease in absorbance at 540 nm after addition of Ca^2+ (250 μM). To study the protective effect of C-2 and Ru360, mitochondrial swelling assay was performed in mitochondria treated with or without the compounds (50 μM).
Additionally, the swelling of mitochondria isolated from NRVMs subjected to H/R injury in the absence or presence of C-2 or Ru360 was monitored. After baseline measurement of the absorbance at 600 nm, a single bolus of Ca^2+ (250 μM) was added to induce mPTP opening. As known, the decrease in mitochondrial absorbance indicates mitochondrial swelling and subsequent mPTP opening.

[2] = molecular target: T1, mitochondrial calcium uniporter (MCU) (Homo sapiens, UniProt Q8NE86); assay: Cytoplasmic and mitochondrial Ca2+ dynamics in intact HeLa cells after histamine; assay type: cell-based; design: 30 min) and Rhod-2 AM; endogenous in cells; host or cells: HeLa (intact; some experiments with transfected Ca2+ sensors R-GECO1 and GCamP6-mt, MCU itself not transfected); details: for inhibition of MCU-mediated mCa2+ uptake in intact cells: intact HeLa cells, 50 μM for 30 minutes, histamine 100 μM, Rhod-2 AM and GCamP6-mt; for cytosolic calcium dynamics in intact cells: intact cells stimulated with histamine
T1 sequence (Q8NE86 51-351): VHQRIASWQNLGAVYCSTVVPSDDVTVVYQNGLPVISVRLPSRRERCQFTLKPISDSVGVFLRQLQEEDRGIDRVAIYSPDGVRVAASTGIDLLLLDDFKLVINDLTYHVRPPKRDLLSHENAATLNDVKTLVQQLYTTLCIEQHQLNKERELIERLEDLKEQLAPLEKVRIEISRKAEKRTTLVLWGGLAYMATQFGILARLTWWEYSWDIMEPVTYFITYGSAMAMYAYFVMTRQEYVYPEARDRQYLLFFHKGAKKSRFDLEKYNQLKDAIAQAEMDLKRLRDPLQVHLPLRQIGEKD
T1 sequence (Q9H4I9 48-107 partner limits assumed): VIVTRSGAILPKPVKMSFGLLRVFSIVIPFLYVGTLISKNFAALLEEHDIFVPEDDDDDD
Method: HeLa cells were loaded with Fluo-4-AM (5 μM; 30 min) and Rhod-2 AM (2 μM; 50 min) in extracellular medium as previously described (F. Perocchi et al, Nature 2010, 467, 291-296). Coverslips were mounted in an open perfusion microincubator at 37° C. and imaged. After 1 minute of baseline recording, histamine (100 μM) was added, and confocal images were recorded every 3 seconds at 488 and 561 nm excitation using a 40× oil objective. Images were analyzed and quantified by using ImageJ (NIH).
HeLa cells were transiently transfected with genetically encoded cytosolic and mitochondrial targeted Ca^2+ sensors R-GECO1 and GCamP6-mt plasmids. After 48 hours, the transfected cells were treated with MCU inhibitors (C1, C-2, and C-3; 50 μM). After 1 minute of baseline recording, histamine (100 μM) was added, and the change of R-GECO1 and GCamP6-mt fluorescence was measured with 488-nm and 561-nm excitation on a confocal microscope equipped with a 40× oil objective. Images were analyzed and quantified by using ImageJ (NIH).
Encouraged by the high cell permeability and mitochondrial selectivity of C-2, the capability of this complex to inhibit MCU-mediated mCa^2+ uptake in intact, non-permeabilized cells was investigated Briefly, HeLa cells were loaded with the cytosolic calcium concentration ([Ca^2+]) indicator Fluo-4 AM and the mitochondrial calcium concentration ([…]) indicator Rhod-2 AM in the presence or absence of C-1, C-2, and C-3 (50 μM). Cells were stimulated with the GPCR agonist histamine (100 μM) to rapidly elevate cCa^2+ levels to induce mCa^2+ uptake (Z. Dong et al., Mol. Cell 2017, 65, 1014-1028).
FIGS. 3A and 3B are graphs showing results of cytosolic ([Ca^2+]e, Fluo-4 AM) and mitochondrial ([Ca^2+]m, Rhod-2 AM) calcium transients in HeLa cells after treatment with histamine (100 μM) that were pretreated with or without C-1, C-2, or C-3 (50 μM) for 30 minutes. FIGS. 3C and 3D are graphs showing results of cytosolic ([Ca^2+]e, R-GECO) and mitochondrial ([Ca^2+]m, GCamP6-mt)) calcium transients in HeLa cells after treatment with histamine (100 μM) that were pretreated with or without C-1, C-2, or C-3 (50 μM) for 30 minutes. HeLa cells were co-transfected with R-GECO1 and GCamP6-mt. 48 hours post-transfection. Data are represented as mean±SEM. *p<0.05. n=3-6.

N.N.N.N.N.N.N.N.[Cl-].[Cl-].[N-3].[Ru+4].[Ru+4] [C-2, [Ru2(μ-N)(NH3)8Cl2]Cl3]
mitochondrial swelling (decrease in absorbance after Ca2+ addition) [1]: no decrease in absorbance was observed | inhibition of MCU-mediated mCa2+ uptake in intact cells [2]: significant inhibition of MCU-mediated mCa^2+ uptake | inhibition of MCU-mediated mCa2+ uptake in intact cells ([2]; listed as Ru265): most effective MCU-inhibition in non-permeabilized cells | cytosolic calcium dynamics in intact cells [2]: normal cytosolic calcium dynamics | cytosolic calcium dynamics in intact cells ([2]; listed as Ru265): without any effect on intracellular Ca^2+ dynamics

N.N.N.N.N.N.N.N.O=C[O-].O=C[O-].[O-2].[Ru+3].[Ru+4] [Ru360, reference compound]
mitochondrial swelling (decrease in absorbance after Ca2+ addition) [1]: no decrease in absorbance was observed

[Ru2(μ-N)(en)4Cl2]Cl3 [C-3]
inhibition of MCU-mediated mCa2+ uptake in intact cells [2]: did not show appreciable inhibition of mCa^2+ uptake
